In experiment [1] the test system is cultured rat forebrain neurons. Description: Survival assay of neuronal cultures (Alamar Blue reduction, 24 hr). To be noted: for EC50: Rattus norvegicus, Neuron, read-out: EC50 of the protective effect against SIN-1 toxicity, SIN-1 1 mM. How it is done:
Neuronal cultures were prepared from embryonic day 16 Sprague Dawley rat fetuses using methods similar to those previously described (Dichter, 1978) but modified to produce cultures that contained <1% astrocytes (Rosenberg and Aizenman, 1989; Rosenberg, 1991; Rosenberg et al., 1992; Wang et al., 1998). Cultures were initially plated on poly-L-lysine-coated 24-well plastic plates (Costar, Cambridge, Mass.) using an 80:10:10 (v/v) mixture ofDMEM (Life Technologies 11960-010), Ham's F-12 (Sigma, N-4888), heat-inactivated iron-supplemented calf serum (Hyclone A2151), containing 2 mM glutamine, 25 mM HEPES, 24 U/ml penicillin, and 24 μg/ml streptomycin and maintained in a 5% CO2 (balance air) incubator at 36° C. Cell proliferation was inhibited by exposure to 5 μM cytosine arabinoside at 24 hr in vitro for 72 hr. On the fourth day of culture, the medium was completely removed and replaced with 90% MEM, 10% Nuserum IV (Collaborative Research), 2 mM glutamine, 5 mM HEPES, containing 50 units/ml superoxide dismutase (Boehringer Mannheim, Indianapolis, Ind.), 20 units/ml catalase (Sigma CV-40), total glucose 11 mM, and total sodium bicarbonate 9.3 mM, plus 2% B27 supplement (Life Technologies 17504-036). Medium was not subsequently changed. To prevent evaporation of water, culture dishes were kept in wet dishes containing filter paper that was always kept wet.
In all experiments, 24-well plates were first washed three times in Hank's balanced salt solution (HBSS) containing 0.1% bovine serum albumin (BSA), and then they were placed in Earle's balanced salt solution (EBSS, which is composed of 116 mM NaCl, 5.4 mM KCl, 1.8 mM CaCl2, 0.8 mM MgSO4, 26 mM NaHCO3, 1 mM NaH2PO4 and 5.5 mM D-glucose). Experiments were carried out exclusively in EBSS. […] PQQ was directly dissolved in EBSS.
Survival of cells was determined after 24 hr exposure to the test compounds by assessing the ability of cultures to reduce Alamar Blue (Trek Diagnostic Systems, Inc., Westlake, Ohio) as an index of viability (McGahon et al., 1995). Details of this procedure have been provided elsewhere (Back et al., 1998, 1999). In brief, the test medium was removed after 24 hr, and then replaced with EBSS plus a 1:100 dilution of Alamar Blue. After 2 hr exposure, the medium was diluted 50-fold with water, and the fluorescence intensity was determined in a Hitachi fluorescence spectrophotometer using an excitation wavelength of 530 nm and an emission wavelength of 590 nm. The photomultiplier voltage was set at 700 V. In some experiments, the cell viability determined by Alamar Blue was compared to that determined by the assay of lactate dehydrogenase (LDH) release (Koh and Choi, 1987).
For orientation: The colour change of resazurin is a common sign of viable cells or microbes.

The test system of experiment [2] is cultured rat forebrain neurons. Briefly: Assay of intracellular ATP in neuronal cultures (firefly luciferase). In kind it is cell-based. How it is done: Medium was not subsequently changed.
Experiments were carried out exclusively in EBSS. […] PQQ was directly dissolved in EBSS.
The Bioluminescent Somatic Cell Assay kit from Sigma (catalog No. FL-ASC) was used for assay of ATP as previously described (Rosenberg et al., 2000). At selected time points after addition of drug or vehicle, medium was removed, and then replaced with 200 μl of cell lysis agent. After brief agitation, the medium was transferred to microcentrifuge tubes that contained 200 μl of water. The tubes were placed on wet ice until assay. ATP assay mix was used at 25-fold dilution, and 100 μl of the extract was assayed.

A further experiment deals with BSA. Description: Western blot of BSA tyrosine nitration, cell-free (anti-nitrotyrosine antibody). In kind it is biochemical, bovine. To be noted: 1 hr. How it is done: BSA (0.5 mg/ml) in EBSS with or without PQQ was exposed to SIN-1 or peroxynitrite for 1 hr, and then 4× sample buffer (40% glycerol, 20% β-mercaptoethanol, 0.004% bromophenol blue, 6.4% SDS, 25% 1M Tris-HCl, pH 6.8) was added. After the samples were heated for 5 min, 2 μg protein per lane was subjected to SDS-PAGE analysis, followed by transfer to PVDF membrane (NEN Life Science, Boston, Mass.) and reacted with a mouse anti-nitrotyrosine monoclonal antibody (Upstate Biotechnology). Proteins were visualized with horseradish peroxidase-conjugated sheep anti-mouse immunoglobulin G (IgG) followed by detection with enhanced chemiluminescence.
(In general: Immunoblotting shows a protein as a band on a membrane.)

Experiment [3] can be described thus: Assay of H2O2 produced by the reaction of SIN-1 with SOD or PQQ. It is filed as biochemical. To be noted: data not shown. How it is done: The method described by Yakes and Van Houten (1997) was used, exploiting the oxidation of o-diansidine dihydrochloride (o-DD, Sigma D-3252) in the presence of horseradish peroxidase (Sigma P-8250). Briefly, SIN-1 (1 mM) was incubated with SOD (100 units/ml) or PQQ (100 μM) in the absence or presence of catalase (100 units/ml) in EBSS for various times. Then o-DD was added to a final concentration of 250 μM and 2.5 units/ml horseradish peroxidase were added. After 1 hr incubation at 37° C., the absorbance at 470 nm was measured. The concentration of H2O2 in samples was calculated based on a standard curve obtained by the reaction of various concentrations of H2O2 with o-DD and horseradish peroxidase.

The next experiment deals with Oligodendrocytes. Description: In vitro white matter injury assay: SIN-1 toxicity in oligodendrocytes. It is filed as cell-based. To be noted: PQQ 100 μM; SIN-1 0.25-2 mM, 2 hr; examined at 24 hr. How it is done:
Oligodendrocytes were exposed to various concentrations of SIN-1 (0, 0.25, 0.5, 1 and 2 mM) in EBSS for 2 hr with or without PQQ (100 μM), then washed with HBSS containing 0.1% BSA for 2 times. Oligodendrocytes were then returned to the culture medium. The neurotoxicity was examined at 24 hr.
To illustrate the neuroprotective benefits of the invention, PQQ was used to show oligodendrocytes protection from cell toxicity in an in vitro white matter injury assay. Oligodendrocytes were exposed to various concentrations of SIN-1 (0, 0.25, 0.5, 1 and 2 mM) in EBSS for 2 hr with or without PQQ (100 μM), then washed with HBSS containing 0.1% BSA for 2 times. Oligodendrocytes were then returned to the culture medium. The neurotoxicity was examined at 24 hr.

For experiment [4] the following is noted: ESR, in vitro; Urakami et al (1997); read-out: IC50 in scavenging superoxide; cited from earlier work.

“And” between values parts separate entries of the source, which are not always exact repeats. Equal entries are not always repeated. “Also recorded” adds a separate entry of the source. Where two headings read alike, the source gives them in different places.

As usually defined, the EC50 is the concentration giving half of the maximal effect. The term IC50 denotes the point on the concentration scale where inhibition reaches its midpoint. On to `O=C(O)c1cc(C(=O)O)c2c(n1)C(=O)C(=O)c1cc(C(=O)O)[nH]c1-2` [PQQ, Pyrroloquinoline quinone], for which the “Effect on neurotoxicity induced by NMDA plus DETA/NO” value in experiment [1] (24 hr exposure, PQQ 100 μM) is “fully blocked; also recorded: block”; in experiment [1] (four hour exposure, PQQ 100 μM, NMDA 20 μM, DETA/NO 300 μM) it was “completely blocked; also recorded: blocks”. The Neuronal survival in experiment [1] (DEA/NO 1 mM in the presence of PQQ 100 μM) was 39.7±16.8 % of control; in experiment [1] (DETA/NO 1 mM in the presence of PQQ 100 μM), 30.7±7.7 % of control; in experiment [1] (DPT/NO 1 mM in the presence of PQQ 100 μM), 1.7±0.7 % of control. The “Cell (neuronal) survival” value in experiment [1] (ONOO− 100 μM in the presence of PQQ 100 μM) is 11±6% and 11±8%. In addition, the “Effect on neurotoxicity caused by nitric oxide donors” value in experiment [1] (PQQ 100 μM, DEA/NO, DPT/NO, DETA/NO 1 mM) is listed as “nor did it prevent cell death; also recorded: no protective effect”. The “Effect on neurotoxicity induced by ONOO− (peroxynitrite)” value in experiment [1] (PQQ 100 μM, ONOO− 100 μM) is on record as “potentiated; also recorded: significantly potentiates”. In addition, in experiment [1] (PQQ 100 μM, SIN-1 1 mM, no catalase), the “Effect on neurotoxicity induced by SIN-1” value was “completely protected; also recorded: completely blocks”. Also, the EC50 stood at 22.6 µM in experiment [1] (representative experiment FIG. 2B) and 15 ± 8.4 µM in experiment [1] (three experiments). Further, the “Effect on ATP depletion caused by nitric oxide donors” value in experiment [2] (PQQ 100 μM, DEA/NO, DPT/NO 1 mM) is “did not block; also recorded: no effect”. The “Effect on ATP depletion caused by ONOO−” value in experiment [2] (PQQ 100 μM, ONOO− 100 μM) is recorded as “no effect”. Moreover, the “Effect on ATP depletion induced by SIN-1” value in experiment [2] (PQQ 100 μM, SIN-1 1 mM, 1 hr) is listed as “significantly blocked”. Also, the “Intracellular ATP” value is 42±5.4% and 43.8±4.7% in experiment [2] (of control values, 1 hr ONOO− 100 μM with PQQ 100 μM); 84.4±13.9% and 93±12.6% in experiment [2] (of control values, 1 hr SIN-1 1 mM with PQQ 100 μM); 42.9±19.6% in experiment [2] (one hour, DEA/NO 1 mM in the presence of PQQ 100 μM); 72.7±7.9% in experiment [2] (one hour, DPT/NO 1 mM in the presence of PQQ 100 μM). Besides, in the experiment with BSA (ONOO− 100 μM, PQQ 100-500 μM), the “Effect on BSA nitration caused by ONOO−” value is reported as “potentiated; also recorded: increased”. The “Effect on BSA nitration caused by SIN-1” value with BSA (SIN-1 1 mM, PQQ 100 μM, 300 μM or 500 μM) was “completely blocked”. Also, the “Effect on oxidation of o-diansidine by H2O2” value in experiment [3] is recorded as “did not reduce”. For the same molecule, the “Effect on oligodendrocyte death induced by SIN-1” value in the experiment with Oligodendrocytes is listed as “completely blocked”. For the same molecule, the IC50 in experiment [4] is 0.038 µM.

The record behind these values is patent US20030229114A1, “Pyrroloquinoline quinone drugs as a neuroprotectant and methods of use thereof” (priority 2002, published 2003).
